Assay results reported in patent US20090186949A1, “Method for Treating Endothelial and Epithelial Cell Disorders by Administering High Molecular Weight PEG-Like Compounds” (THE UNIVERSITY OF CHICAGO, priority 2006, published 2009).

Key:
[1] = system: human pulmonary artery endothelial cells (HPAEC); assay: Reversal of thrombin- or LPS-induced barrier disruption (TEER); format: cell-based; conditions: LPS
[2] = system: PA-I lectin/adhesin expression in P. aeruginosa; format: cell-based, Pseudomonas aeruginosa
[3] = system: P. aeruginosa PAO1 and 27853; format: cell-based, Pseudomonas aeruginosa

Compound | duration of decrease in barrier resistance [1] | PA-I protein (immunoblot) [2] | biofilm production [3]
lipopolysaccharide [LPS] | over 20 hours | – | –
C=CCN1C[C@H](C)N([C@H](c2ccc(C(=O)N(CC)CC)cc2)c2cccc(O)c2)C[C@H]1C [BW373U86] | – | induced PA-I protein to the same degree as C4-HSL | especially increased with the δ agonist
